From patent publication US20230130766A1 (SALK INSTITUTE FOR BIOLOGICAL STUDIES, priority 2020, published 2023)

Columns and labels:
NCI-H358 cells = assay: H358 xenografts treated with ULK inhibitor alone; format: in vivo, nude mice; settings: 30 mg/kg twice daily
Procedure: NCI-H358 cells (5M cells) were injected bilaterally into the flanks of twenty nude mice to create tumor xenografts in order to assess the efficacy of Compound 14 in treating non-small cell lung cancer tumors. After 32 days of letting tumor cells proliferate (at which point tumors had reach ˜200 mm^3 in volume), one cohort of ten mice was administered 30 mg/kg twice daily doses of Compound 14, and the remaining mice administered vehicle alone. Treatment and monitoring was continued until day 72 post inoculation of tumor cells.

A549 cells = assay: A549 xenograft large tumors, ULK inhibitor alone versus carboplatin; format: in vivo, nude mice; settings: A549 large tumors; each Compound 14 cohort: 20 mg/kg twice daily, 30 mg/kg twice daily, 40 mg/kg once daily; 32 days
Procedure: A549 cells (5M cells) were injected bilaterally into the flanks of forty-six nude mice to create tumor xenografts in order to assess the efficacy of Compound 14 in treating larger non-small cell lung cancer tumors compared to carboplatin, the current standard of care therapy for non-small cell lung cancer. After 40 days of letting tumor cells proliferate (at which point tumors were over 200 mm^3 in volume), administration of carboplatin or Compound 14 was initiated. One cohort of twelve mice received 20 mg/kg twice daily doses of Compound 14, one cohort of ten mice received 30 mg/kg twice daily doses of Compound 14, one cohort of seven mice received 25 mg/kg doses of carboplatin every three days, one cohort of seven mice received 40 mg/kg once daily doses of Compound 14, and the remaining ten mice were treated with vehicle. Treatment and monitoring was continued until day 72 post inoculation of tumor cells (32 days of treatment).

ULK1 = target: T1, ULK1 (Homo sapiens, UniProt O75385); assay: ULK1 inhibition assay; format: biochemical; settings: * = tested as a mixture of regioisomers
T1 sequence (O75385 1-1050): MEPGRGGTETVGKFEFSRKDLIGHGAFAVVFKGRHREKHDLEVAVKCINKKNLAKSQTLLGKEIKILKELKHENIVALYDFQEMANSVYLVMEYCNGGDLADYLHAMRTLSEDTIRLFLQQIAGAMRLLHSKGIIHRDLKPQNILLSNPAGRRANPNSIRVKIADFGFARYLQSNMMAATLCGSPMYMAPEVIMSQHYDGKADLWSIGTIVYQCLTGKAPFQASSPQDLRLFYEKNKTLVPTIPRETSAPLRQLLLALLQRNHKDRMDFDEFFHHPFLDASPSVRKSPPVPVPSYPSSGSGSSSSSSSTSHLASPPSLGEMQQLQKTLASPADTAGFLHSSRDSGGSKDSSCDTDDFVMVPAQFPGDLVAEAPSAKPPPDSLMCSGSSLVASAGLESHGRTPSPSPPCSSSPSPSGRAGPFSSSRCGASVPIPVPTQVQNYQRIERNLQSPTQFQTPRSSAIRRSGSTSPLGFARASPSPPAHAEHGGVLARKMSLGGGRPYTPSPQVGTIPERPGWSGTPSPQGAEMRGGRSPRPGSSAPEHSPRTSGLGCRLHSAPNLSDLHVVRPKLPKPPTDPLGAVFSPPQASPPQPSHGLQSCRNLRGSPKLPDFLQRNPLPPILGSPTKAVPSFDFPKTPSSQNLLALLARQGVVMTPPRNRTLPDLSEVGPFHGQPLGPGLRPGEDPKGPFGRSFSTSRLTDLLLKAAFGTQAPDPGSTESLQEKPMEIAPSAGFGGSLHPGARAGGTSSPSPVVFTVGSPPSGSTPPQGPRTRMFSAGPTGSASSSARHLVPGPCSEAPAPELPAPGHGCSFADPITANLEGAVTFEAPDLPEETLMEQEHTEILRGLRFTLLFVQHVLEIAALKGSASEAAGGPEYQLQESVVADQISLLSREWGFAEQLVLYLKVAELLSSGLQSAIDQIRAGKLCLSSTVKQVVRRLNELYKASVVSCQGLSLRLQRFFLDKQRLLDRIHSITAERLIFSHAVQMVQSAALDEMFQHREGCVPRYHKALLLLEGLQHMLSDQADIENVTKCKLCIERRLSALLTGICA

[1] = tested on: phosphorylated ATG13 (P-ATG); assay: Western blot analysis of A549 xenograft tumors; format: in vivo, nude mice; settings: A549 xenograft tumors at end of study
Procedure: A549 cells (5M cells) were injected bilaterally into the flanks of thirty-six nude mice to create tumor xenografts in order to assess the efficacy of Compound 14 in treating non-small cell lung cancer tumors both alone and in combination with carboplatin, the current standard of care therapy for non-small cell lung cancer. After 11 days of letting tumor cells proliferate (at which point tumors were ˜50 mm^3 in volume), administration of carboplatin, Compound 14, or combinations began. One cohort of six mice received 20 mg/kg twice daily doses of Compound 14 alone, one cohort of six mice received 30 mg/kg twice daily doses of Compound 14 alone, one cohort of six mice received 25 mg/kg doses of carboplatin every three days, one cohort of six mice received 20 mg/kg twice daily doses of Compound 14 in conjunction with 25 mg/kg doses of carboplatin every three days, one cohort of six mice received 30 mg/kg twice daily doses of Compound 14 in conjunction with 25 mg/kg doses of carboplatin every three days, and the remaining six mice were treated with vehicle. Treatment and monitoring was continued until day 53 post inoculation of tumor cells (42 days of treatment).
At the end of the study, Western blot analysis of the tumors from vehicle and Compound 14 monotherapy cohorts was analyzed.

NCI-H460 cells = assay: NCI-H460 xenografts treated with ULK inhibitor alone; format: in vivo, nude mice; settings: 30 mg/kg twice daily
Procedure: NCI-H460 cells (2.5M cells) were injected bilaterally into the flanks of twenty-four nude mice to create tumor xenografts in order to assess the efficacy of Compound 14 in treating non-small cell lung cancer tumors. After 14 days of letting tumor cells proliferate (at which point tumors had reach ˜200 mm^3 in volume), one cohort of twelve mice was administered 30 mg/kg twice daily doses of Compound 14, and the remaining mice administered vehicle alone. Treatment and monitoring were continued until day 23 post inoculation of tumor cells (9 days of treatment).

MIA PaCa-2 cells = assay: MIA PaCa-2 xenografts, ULK inhibitor alone versus gemcitabine; format: in vivo, nude mice; settings: day 42, Compound 14 20 mg/kg twice daily, gemcitabine dose not given
Procedure: MIA PaCa-2 cells were injected bilaterally into the flanks of nude mice to create tumor xenografts in order to assess the efficacy of Compound 14 in treating pancreatic cancer tumors compared to gemcitabine, a current standard of care therapy for pancreatic cancer. After 3 days of letting tumor cells proliferate (at which point tumors were ˜100 mm^3 in volume), administration of gemcitabine or Compound 14 was initiated. One cohort received 20 mg/kg twice daily doses of Compound 14, one cohort received gemcitabine, and the remaining cohort was treated with vehicle. Treatment and monitoring were continued until day 42 post inoculation of tumor cells (30 days of treatment).

`CNC(=O)c1ccccc1Nc1nc(Nc2cc(OC)c(OC)c(OC)c2)ncc1Br` [Compound 14] was tested, and the “% growth of tumor cells relative to the start of treatment” value (NCI-H358 cells) was “clear reduction in average tumor size”, the average tumor volume (NCI-H358 cells; day 32 to day 72 post inoculation) was “no growth during the monitoring period, and even a decrease in tumor size” and the “average tumor mass at the end of the study” value (NCI-H358 cells; day 35 post treatment) was “substantially smaller overall tumor burden compared to control”. The “tumor growth compared with the start of treatment” value (A549 cells) was “little to no growth, or even a decrease in tumor volume”, the IC50 (ULK1) was under 200 nM and the “phosphorylated ATG13 in tumors (Western blot)” value ([1]; 20 mg/kg twice daily monotherapy) was “some residual phosphorylated ATG13”. For the same molecule, the “phosphorylated ATG13 in tumors (Western blot)” value ([1]; 30 mg/kg twice daily monotherapy) was “almost total elimination of phosphorylated ATG13”, the “% growth of tumor relative to the start of treatment” value (NCI-H460 cells) was “clear reduction in tumor growth” and the average tumor volume (NCI-H460 cells; 9 days of treatment) was “substantially reduced growth during the monitoring period compared to the control”. The tumor growth (NCI-H460 cells; after 3 days of treatment) was “tumor growth had virtually stopped”, the “less tumor mass than vehicle treated mice” value (NCI-H460 cells; day 9 post treatment) was about 50% and the final tumor volume (MIA PaCa-2 cells) was about 800 mm^3.
